Assay results reported in patent publication US11107993B2, “Organic compound and organic electroluminescent element comprising same” (MATERIAL SCIENCE CO., LTD., priority 2015, dated 2021).

Assay: Evaluation of solubility of organic compound in hexane, toluene and dichloromethane
Format: physicochemical
Settings: room temperature; for solubility compared with Compound 9: summary of Table 3, toluene, dichloromethane
Procedure: Evaluation of Solubility of Organic Compound
The solubility in hexane, toluene and dichloromethane was measured for the compounds of Synthesis Example 9, and Comparative Synthesis Examples 2 and 3.

SMILES | solubility in hexane | solubility compared with Compound 9
Cc1ccc(C)c(N(c2cc(C(C)(C)C)ccc2C)c2ccc3ccc4c(N(c5cc(C)ccc5C)c5cc(C(C)(C)C)ccc5C)ccc5ccc2c3c54)c1 [Compound 1-B] | Insoluble | significantly lower solubility than Compound 9
CCc1cc(N(c2cc(C)ccc2C)c2cc(C(C)(C)C)ccc2C)c2ccc3c(CC)cc(N(c4cc(C)ccc4C)c4cc(C(C)(C)C)ccc4C)c4ccc1c2c34 [Compound 1-C] | Insoluble | significantly lower solubility than Compound 9
